# Assay results from ChEMBL document CHEMBL5537111, “Structure and function of SARS-CoV and SARS-CoV-2 main proteases and their inhibition: A comprehensive review” (Eur J Med Chem, 2023).
# Test: Inhibition of SARS-CoV-2 3CL protease Q189A mutant by FRET assay
# Design: species or system Severe acute respiratory syndrome coronavirus 2
smiles,measurement,value
CC1(C)CCC(CN2CCN(c3ccc(C(=O)NS(=O)(=O)c4ccc(NCC5CCOCC5)c([N+](=O)[O-])c4)c(Oc4cnc5[nH]ccc5c4)c3)CC2)=C(c2ccc(Cl)cc2)C1 [VENETOCLAX],IC50,3.18 µM
